This is an account of results in patent US9090617B1, “Agonists of Src homology-2 containing protein tyrosine phosphatase-1 and treatment methods using the same” (National Taiwan University, priority 2011, dated 2015).

Some results are limits rather than exact numbers.

One data set concerns HCC cells. The experiment in a line: Apoptosis analysis by flow cytometry (sub-G1). It counts as cell-based. Particulars: HCC cells, 24 h. As for the experimental part:
Apoptotic cells were measured by flow cytometry (sub-G1). After treatment with various compounds, cells were trypsinized, collected by centrifugation and resuspended in PBS. After centrifugation, the cells were washed in PBS and resuspended in […] (PI) staining solution. Specimens were incubated in the dark for 30 min at 37° C. and then analyzed with an EPICS Profile II flow cytometer (Coulter Corp., Hialeah, Fla.). All experiments were performed in triplicate
Collected cells were fixed in 75% Ethanol and stained with 20 ug/ml Propidium Iodide (PI). Sub-G1 analysis was performed by flow-cytometry. […] Points, mean; bars, SD (n=6).
(In general: A flow cytometer gives signals particle by particle.)
`O=S(=O)(Nc1cccc(Oc2ccn3cc(-c4ccccc4)nc3c2)c1)c1cccc(C(F)(F)F)c1` [SC-37, N-(3-(2-phenylimidazo[1,2-a]pyridin-7-yloxy)phenyl)-3-(trifluoromethyl)benzenesulfonamide]: the “apoptosis (sub-G1)” value was “has no activity in inducing cancer cell apoptosis”. Still for that read-out and setting: to `N#Cc1ccc(Oc2cccc(NC(=O)C3(C(=O)Nc4cccc(Oc5ccc(C#N)cc5)c4)CC3)c2)cc1` [SC-67, N,N′-bis(3-(4-cyanophenoxyl)phenyl)cyclopropane-1,1-dicarboxamide] belongs “has no activity in inducing cancer cells (PLC5) apoptosis”.

The next data set relates to PLC5 cells. Kind of data set: MTT assay for cell growth inhibition in PLC5 cells.
Conditions: not given
It counts as cell-based. As for the experimental part: These compounds were analyzed by MTT assay for cell growth inhibition in the PLC5 cells.
Next, we changed the pyridine to a quinoline ring and amide linker to generate compounds 12-25. These compounds were also analyzed by MTT assay for cell growth inhibition in the PLC5 cells.
(In general: Formazan colour is commonly taken as a measure of viable cells.)
Broadly, the IC50 is the concentration needed to halve the response being measured. Low readings indicate greater potency, high ones weaker potency. With `CNC(=O)c1cc(Oc2ccc(NS(=O)(=O)c3ccccc3)cc2)ccn1` [Compound 2, N-Methyl-4-(4-(phenylsulfonamido)phenoxy)picolinamide], the IC50 is above 40 µM. The same measure, in the same setting: to `CNC(=O)c1cc(Oc2ccc(NS(=O)(=O)c3ccc([N+](=O)[O-])cc3)cc2)ccn1` [Compound 3, N-Methyl-4-(4-(4-nitrophenylsulfonamido)phenoxy)picolinamide] belongs above 40 µM; to `CNC(=O)c1cc(Oc2ccc(NS(=O)(=O)c3ccc(F)cc3)cc2)ccn1` [Compound 4, 4-(4-(4-Fluorophenylsulfonamido)phenoxy)-N-methylpicolinamide], above 40 µM; to `CNC(=O)c1cc(Oc2ccc(NS(=O)(=O)c3ccc(C(C)(C)C)cc3)cc2)ccn1` [Compound 5, 4-(4-(4-tert-Butylphenylsulfonamido)phenoxy)-N-methylpicolinamide], above 40 µM. The molecule `CNC(=O)c1cc(Oc2ccc(NS(=O)(=O)c3ccc4ccccc4c3)cc2)ccn1` [Compound 6, N-Methyl-4-(4-(naphthalene-2-sulfonamido)phenoxy)picolinamide] showed an IC50 above 40 µM. Turning to `CNC(=O)c1cc(Oc2ccc(NS(=O)(=O)c3ccc(C(F)(F)F)cc3Br)cc2)ccn1` [Compound 7, 4-(4-(2-Bromo-4-(trifluoromethyl)phenylsulfonamido)phenoxy)-N-methylpicolinamide], the concentration for half-maximal inhibition (IC50) is above 40 µM. The molecule `CNC(=O)c1cc(Oc2ccc(NS(=O)(=O)c3ccccc3[N+](=O)[O-])cc2)ccn1` [Compound 8, N-Methyl-4-(4-(2-nitrophenylsulfonamido)phenoxy)picolinamide] came in with an IC50 above 40 µM.

On to `CNC(=O)c1cc(Oc2ccc(NC(=O)c3cc(C(F)(F)F)cc(C(F)(F)F)c3)cc2)ccn1` [Compound 9, 4-(4-(3,5-Bis(trifluoromethyl)benzamido)phenoxy)-N-methylpicolinamide], for which the IC50 was above 40 µM.

In turn, `CNC(=O)c1cc(Oc2ccc(NC(=O)c3cc(F)ccc3C(F)(F)F)cc2)ccn1` [Compound 10, 4-(4-(5-Fluoro-2-(trifluoromethyl)benzamido)phenoxy)-N-methylpicolinamide] had an IC50 above 40 µM. On to `CNC(=O)c1cc(Oc2ccc(NC(=O)c3ccc(C(F)(F)F)cc3)cc2)ccn1` [Compound 11, N-Methyl-4-(4-(4-(trifluoromethyl)benzamido)phenoxy)picolinamide], for which the IC50 was above 40 µM. The molecule `O=[N+]([O-])c1cc(C(F)(F)F)ccc1S(=O)(=O)Nc1ccc(Oc2ccnc3ccccc23)cc1` [Compound 12, 2-Nitro-N-(4-(quinolin-4-yloxy)phenyl)-4-(trifluoromethyl)benzenesulfonamide] had an IC50 above 40 µM. As for `O=[N+]([O-])c1cc(C(F)(F)F)ccc1S(=O)(=O)Nc1ccc(Oc2ccnc3c([N+](=O)[O-])cccc23)cc1` [Compound 13, 2-Nitro-N-(4-(8-nitroquinolin-4-yloxy)phenyl)-4-(trifluoromethyl)benzenesulfonamide], the IC50 was above 40 µM. Turning to `O=S(=O)(Nc1ccc(Oc2ccnc3ccccc23)cc1)c1ccc(C(F)(F)F)cc1Br` [Compound 14, 2-Bromo-N-(4-(quinolin-4-yloxy)phenyl)-4-(trifluoromethyl)benzenesulfonamide], the IC50 was above 40 µM.

The molecule `O=[N+]([O-])c1cccc2c(Oc3ccc(NS(=O)(=O)c4ccc(C(F)(F)F)cc4Br)cc3)ccnc12` [Compound 15, 2-Bromo-N-(4-(8-nitroquinolin-4-yloxy)phenyl)-4-(trifluoromethyl)benzenesulfonamide] gave an IC50 above 40 µM.

With `O=C(Nc1ccc(Oc2ccnc3ccccc23)cc1)c1cc(C(F)(F)F)cc(C(F)(F)F)c1` [Compound 16, N-(4-(Quinolin-4-yloxy)phenyl)-3,5-bis(trifluoromethyl)benzamide], it took 16 µM to reach half-maximal inhibition (IC50).

`O=C(Nc1ccc(Oc2ccnc3c([N+](=O)[O-])cccc23)cc1)c1cc(C(F)(F)F)cc(C(F)(F)F)c1` [Compound 17, N-(4-(8-Nitroquinolin-4-yloxy)phenyl)-3,5-bis(trifluoromethyl)benzamide] registered an IC50 above 40 µM.

In turn, `O=C(Nc1ccc(Oc2ccnc3ccccc23)cc1)c1cc(C(F)(F)F)ccc1F` [Compound 18, 2-Fluoro-N-(4-(quinolin-4-yloxy)phenyl)-5-(trifluoromethyl)benzamide] yielded an IC50 of 21.1 µM.

For the molecule `O=C(Nc1ccc(Oc2ccnc3c([N+](=O)[O-])cccc23)cc1)c1cc(C(F)(F)F)ccc1F` [Compound 19, 2-Fluoro-N-(4-(8-nitroquinolin-4-yloxy)phenyl)-5-(trifluoromethyl)benzamide], the IC50 was above 40 µM.

The molecule `Cc1cc(NC(=O)c2cc(C(F)(F)F)cc(C(F)(F)F)c2)ccc1Oc1ccnc2c([N+](=O)[O-])cccc12` [Compound 20, N-(3-Methyl-4-(8-nitroquinolin-4-yloxy)phenyl)-3,5-bis(trifluoromethyl)benzamide] came in with an IC50 above 40 µM. Same read-out and setting: to `Cc1cc(NC(=O)c2cc(C(F)(F)F)cc(C(F)(F)F)c2)ccc1Oc1ccnc2c(N)cccc12` [Compound 21, N-(4-(8-Aminoquinolin-4-yloxy)-3-methylphenyl)-3,5-bis(trifluoromethyl)benzamide] belongs 25.4 µM; to `CC(=O)Nc1cccc2c(Oc3ccc(NC(=O)c4cc(C(F)(F)F)cc(C(F)(F)F)c4)cc3C)ccnc12` [Compound 22, N-(4-(8-Acetamidoquinolin-4-yloxy)-3-methylphenyl)-3,5-bis(trifluoromethyl)benzamide], above 40 µM; to `O=C(Nc1cccc(Oc2ccnc3c([N+](=O)[O-])cccc23)c1)c1cc(C(F)(F)F)cc(C(F)(F)F)c1` [Compound 23, N-(3-(8-Nitroquinolin-4-yloxy)phenyl)-3,5-bis(trifluoromethyl)benzamide], above 40 µM. Still for that read-out and setting: to `Nc1cccc2c(Oc3cccc(NC(=O)c4cc(C(F)(F)F)cc(C(F)(F)F)c4)c3)ccnc12` [Compound 24, N-(3-(8-Aminoquinolin-4-yloxy)phenyl)-3,5-bis(trifluoromethyl)benzamide] belongs 19 µM; to `CC(=O)Nc1cccc2c(Oc3cccc(NC(=O)c4cc(C(F)(F)F)cc(C(F)(F)F)c4)c3)ccnc12` [Compound 25, N-(3-(8-Acetamidoquinolin-4-yloxy)phenyl)-3,5-bis(trifluoromethyl)benzamide], 10.8 µM.

For another data set, the system named is HCC cells. The experiment in a line: cells.
Conditions: not given
From the text: Points, mean; bars, SD (n=6).
Points, mean; bars, SD ([…]). […] The N-SH2 domain is in orange, the C-SH2 domain is in marine, the PTP domain is in hot pink, and the linkers between them are in gray. […] ELISA, enzyme-linked immunosorbent assay.
Turning to `N#Cc1ccc(Oc2cc(NC(=O)Nc3ccc(Cl)c(C(F)(F)F)c3)ccc2F)cc1` [SC-111, 1-(4-chloro-3-(trifluoromethyl)phenyl)-3-(3-(4-cyanophenoxy)-4-fluorophenyl)urea], the “viability of HCC cells / cytotoxicity” value is “exhibits antitumor effect in vitro”.

For a further data set, the system named is p-STAT3, cyclin D1, survivin, Mc1-1. Kind of data set: Western blot of STAT3-related proteins in HCC cells. It counts as cell-based. The conditions noted are these: PLC5 cells, 5 and 10 μM, 24 h. As for the experimental part:
Cells were treated with various compounds at 5 and 10 μM for 24 h. Cell lysates were analyzed by western blot.
HCC cells treated with SC-43 (10 μM for 24 h) were collected with RIPA lysis buffer. Antibodies for immunoblotting such as cyclin D1 was purchased from Santa Cruz Biotechnology. Other antibodies such as survivin, phospho-STAT3 (Tyr705), STAT3, Mc1-1, SOCS1, and SOCS3 were from Cell Signaling.
Consider `O=[N+]([O-])c1cc(C(F)(F)F)ccc1S(=O)(=O)Nc1ccc(Oc2ccnc3ccccc23)cc1` [Compound 12, 2-Nitro-N-(4-(quinolin-4-yloxy)phenyl)-4-(trifluoromethyl)benzenesulfonamide], for which the “cyclin D1 and survivin level” value was “had no effect on either protein”.
